Data taken from patent US20100138957A1 (priority 2007, published 2010).

How the values were obtained:
[1] = tested on: 18 bacterial and fungal microorganisms; conditions: cited from earlier work
[2] = tested on: pathogenic Vibrio bacteria; conditions: intraperitoneal injection, juvenile coho salmon; cited from earlier work
[3] = tested on: human intestinal epithelial cells; conditions: cited from earlier work
Xylella fastidiosa = conditions: in vivo
Pseudomonas aeruginosa = conditions: cited from earlier work

Substance: Pleurocidin: 25-residue cationic antimicrobial peptide from skin secretions of winter flounder (GWGSFFKKAAHVGKHVGKAALTHYL; Pleurocidin; UniProt P81941 23-47, looked up)
- microorganisms against which the peptide was effective [1]: 17 of the 18
- efficacy against lethal vibriosis compared to CEME [2]: more effective
- cytotoxic effects [3]: no cytotoxic effects

Substance: MAKWKLFKKIGIGFKKAAHVGKAALTK [B-passerin]
- time plants survived stringent disease challenges with no or lessened visible symptoms (Xylella fastidiosa): up to 12 months
- time surviving plants remained symptomless (Xylella fastidiosa): over 8 months
- transgenic plants that survived the high stringency greenhouse test (Xylella fastidiosa): 90%

Substance: KWKLFKKIGIGAVLKV TTGLPALKTLK [CEMA]
- MIC (Pseudomonas aeruginosa): 2.8 μg per ml
